Measurements taken from US4962109A, “Insecticidally and acaricidally active pyrimidine esters and intermediates therefor” (Imperial Chemical Industries PLC, priority 1985, dated 1990).
Read-outs that look alike come from different tables or passages of the source.

How the values were obtained:
Type in all cases: in vivo
Myzus persicae (aphids) = assay: Contact test on aphids (MP), Chinese Cabbage leaf, mortality; conditions: 72 h, 500 ppm, contact, 3 days, read-out: MP grading of mortality
Outline: (§1)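 Pests were supported on a host plant or food medium, and either or both were treated with preparations at 500, 250 or 100 ppm by weight. Mortality was assessed one to three days afterwards and banded into three grades, from A (80-100%) down to C (under 50%).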

[1] = test system: Musca domestica (houseflies - adults); assay: Contact test on houseflies - adults (MD), Cotton wool/sugar, mortality; conditions: 500 ppm, contact, read-out: MD grading of mortality
Outline: as §1

[2] = test system: Tetranychus urticae (spider mites - adult); assay: Contact test on spider mites - adult (TUa), French bean leaf, mortality; conditions: 72 h, 500 ppm, contact, 3 days, read-out: TUa grading of mortality
Outline: as §1

[3] = test system: Diabrotica balteata (rootworm larvae); assay: Residual test on rootworm larvae (DB), Filter paper/maize seed, mortality; conditions: 48 h, 500 ppm, residual, read-out: DB grading of mortality
Outline: as §1

[4] = test system: Tetranychus urticae (spider mites - ova); assay: Contact test on spider mites - ova (TUe), French bean leaf, mortality; conditions: 144 h, 500 ppm, contact, 6 days, read-out: TUe grading of mortality
Outline: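 Graded read-out: A 80-100%, B 50-79%, C below 50% mortality or knockdown, assessed usually 1-3 days post-treatment. Liquid preparations at 500, 250 or 100 ppm by weight, from acetone solution diluted in water with 0.01% wetting agent, applied to pests and/or their host plant or food medium.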

[5] = test system: Musca domestica (houseflies - adults); assay: Knockdown test on houseflies - adults (MD/KD), Cotton wool/sugar; conditions: 500 ppm, 4 hours, read-out: MD/KD grading of knockdown
Outline: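 Adult houseflies exposed to the compound at 500, 250 or 100 ppm in acetone/water with 0.01% wetting agent, on a cotton wool/sugar medium. Knockdown and mortality assessed, graded A (80-100%), B (50-79%) or C (<50%).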

[6] = test system: Nephotettix cincticeps (green leaf hopper - nymphs); assay: Contact test on green leaf hopper nymphs (NC), Rice plant, mortality; conditions: 500 ppm, contact, read-out: NC grading of mortality
Outline: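 Product dissolved in acetone, diluted in water with 0.01% wetting agent to 500, 250 or 100 ppm; nymphs and/or host rice plants treated. Mortality or knockdown assessed 1–3 days later, graded A (80-100%), B (50-79%), C (<50%).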

[7] = test system: Heliothis virescens (tobacco budworm - larvae); assay: Residual test on tobacco budworm larvae (HV), Cotton leaf, mortality; conditions: 48 h, read-out: HV grading of mortality
Outline: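 Product in acetone diluted with water containing 0.01% Lissapol NX, at 500, 250 or 100 ppm; pests and/or host medium (here cotton leaf) treated. Mortality scored one to three days later, graded A (80-100%), B (50-79%), C (<50%).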

[8] = test system: Spodoptera exigua (lesser army worm - larvae); assay: Residual test on lesser army worm larvae (SP), Cotton leaf, mortality; conditions: 48 h, 500 ppm, residual, read-out: SP grading of mortality
Outline: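 Product dissolved in acetone and diluted in water with 0.01% wetting agent to 500, 250 or 100 ppm; larvae and/or cotton leaf host treated. Mortality or knockdown scored one to three days later and graded A (80-100%), B (50-79%) or C (<50%).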

[9] = test system: Blattella germanica (cockroach nymphs); assay: Residual test on cockroach nymphs (BG/R), Plastic pot, mortality; conditions: 72 h, 3 days, read-out: BG/R grading of mortality
Method: (§2) The activity of the Product was determined using a variety of insect pests. The Product was used in the form of liquid preparations containing 500, 250 or 100 parts per million (ppm) by weight of the Product. The preparations were made by dissolving the Product in acetone and diluting the solutions with water containing 0.01% by weight of a wetting agent sold under the trade name "LISSAPOL" NX until the liquid preparations contained the required concentration of the Product. "Lissapol" is a Registered Trade Mark.
(§3) The test procedure adopted with regard to each pest was basically the same and comprised supporting a number of the pests on a medium which was usually a host plant or a foodstuff on which the pests feed, and treating either or both the pests and the medium with the preparations. The mortality of the pests was then assessed at periods usually varying from one to three days after the treatment.
(§4) The results of the tests are given in Table III for each of the Products, at the rate in parts per million given in the second column as a grading of mortality designated as A, B or C wherein A indicates 80-100% mortality or knockdown, B indicates 50-79% mortality or knockdown and C indicates less than 50% mortality or knockdown.
BG/R Blattella germanica

[10] = test system: Nilaparvata lugens (brown plant hopper); assay: Contact test on brown plant hopper (NL), Rice plant, mortality; conditions: 72 h, 3 days, read-out: NL grading of mortality
Method: as §2, §3, §4

[11] = 24 h, ** test duration of 1 day
[12] = 72 h, * test duration of 3 days

Row | SMILES | mortality at 500 ppm (Myzus persicae (aphids)) | mortality at 500 ppm [1, 11] | mortality at 500 ppm [2] | mortality at 500 ppm ([3]; * test duration of 3 days) | mortality at 500 ppm [4] | pest or weed control at 500 ppm [5] | mortality at 500 ppm [6, 12] | mortality at 500 ppm [7] | mortality at 500 ppm ([8]; * test duration of 3 days) | mortality at 500 ppm [9] | mortality at 500 ppm ([1]; 72 h, 3 days) | mortality at 500 ppm [10] | mortality at 500 ppm ([3]; 2 days) | mortality at 500 ppm ([6]; 48 h, 2 days) | mortality at 500 ppm ([8]; 2 days)
1 | COCc1c(F)c(F)c(COC(=O)C(c2cnc(C(C)(C)C)nc2)C2CC2)c(OC)c1F (racemic) [Compound 92, 3,5,6-trifluoro-2-methoxy-4-(methoxymethyl)benzyl (RS)-2-[2-(1,1-dimethylethyl)pyrimidin-5-yl]-2-cyclopropylacetate] | 80 to 100% | 80 to 100% | 80 to 100% | < 50% | < 50% | 80 to 100% | 80 to 100% | 80 to 100% | 80 to 100% | < 50% |  |  |  |  | 
2 | C=CCc1c(F)c(F)c(COC(=O)C(c2cnc(C(F)(F)F)nc2)C(C)C)c(F)c1F (racemic) [Compound 114, 2,3,5,6-tetrafluoro-4-(prop-2-en-1-yl)benzyl (RS)-2-(2-trifluoromethylpyrimidin-5-yl)-3-methylbutanoate] | 80 to 100% |  | 80 to 100% | 80 to 100% | 80 to 100% | 80 to 100% | 80 to 100% | 80 to 100% | 80 to 100% | 80 to 100% | 80 to 100% |  |  |  | 
3 | COCc1c(F)c(F)c(COC(=O)C(c2cnc(Cl)nc2)C(C)C)c(F)c1F (racemic) [Compound 118, 2,3,5,6-tetrafluoro-4-(methoxymethyl)benzyl (RS)-2-(2-chloropyrimidin-5-yl)-3-methylbutanoate] | 80 to 100% | 80 to 100% | 50 to 79% | < 50% | < 50% |  |  | 50 to 79% | 50 to 79% | < 50% |  | < 50% |  |  | 
4 | C=CCc1c(F)c(F)c(COC(=O)C(c2cnc(C)nc2)C(C)C)c(F)c1F (racemic) [Compound 119] | 80 to 100% | 80 to 100% | 80 to 100% | 80 to 100% | < 50% | 80 to 100% | 80 to 100% | < 50% | 80 to 100% | 80 to 100% |  |  |  |  | 
5 | COCc1c(F)c(F)c(COC(=O)C(c2cnc(C)nc2)C(C)(C)C)c(F)c1F (racemic) [Compound 120, 2,3,5,6-tetrafluoro-4-(methoxymethyl)-benzyl (RS)-2-(2-methylpyrimidin-5-yl)-3,3-dimethylbutanoate] | 80 to 100% |  | 80 to 100% |  | < 50% | 80 to 100% |  | 80 to 100% |  | < 50% | 80 to 100% |  | < 50% | 80 to 100% | 80 to 100%
6 | CC(C)(C)c1ncc(C(C(=O)OCc2ccc(F)c(Oc3ccccc3)c2)C2CC2)cn1 (racemic) [Compound 125, 4-fluoro-3-phenoxybenzyl (RS)-2-[2-(1,1-dimethylethyl)pyrimidin-5-yl]-2cyclopropylacetate] | 80 to 100% | 50 to 79% | 80 to 100% | 80 to 100% | < 50% | 50 to 79% | 80 to 100% | 80 to 100% | 80 to 100% | < 50% |  |  |  |  | 
7 | COCc1c(F)c(F)c(COC(=O)C(c2cnc(C)nc2)C(C)C)c(F)c1F (racemic) [Compound 214, 4-(methoxymethyl)-2,3,5,6-tetrafluoroenzyl (RS)-2-(2-methylpyrimidin-5-yl)-3-methylbutanoate] | 80 to 100% | 50 to 79% | 80 to 100% | < 50% | < 50% | 80 to 100% | 80 to 100% | < 50% | 80 to 100% | 80 to 100% |  |  |  |  | 
